Laboratory results published in the supplement of paper PMC11451515.

System: SEM cells
Experiment: cell viability relative to DMSO control; higher = less cytotoxic
Conditions: 48 h
Method in brief: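 Viability values are per-plate percentages of DMSO wells, with background from cell-free wells. Library compounds in DMSO were pin-dosed, in an 11-point threefold series from 47 μM to 0.79 nM, onto NOMO1 or SEM (500 cells/well) or P12-Ichikawa (1000 cells/well) leukemia cells in 1536-well plates (5 μl). Those cells had been adapted for at least four passages in each medium, and CellTiter-Glo One luminescence was read after 48 h at 37°C.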

[1] = HPLM + 10% dialyzed FBS, 0.000781 µM
[2] = HPLM + 10% dialyzed FBS, 0.00234 µM
[3] = HPLM + 10% dialyzed FBS, 0.00702 µM
[4] = HPLM + 10% dialyzed FBS, 0.0211 µM
[5] = HPLM + 10% dialyzed FBS, 0.0632 µM
[6] = HPLM + 10% dialyzed FBS, 0.19 µM
[7] = HPLM + 10% dialyzed FBS, 0.569 µM
[8] = HPLM + 10% dialyzed FBS, 1.71 µM
[9] = HPLM + 10% dialyzed FBS, 5.12 µM
[10] = HPLM + 10% dialyzed FBS, 15.4 µM
[11] = HPLM + 10% dialyzed FBS, 46.1 µM
[12] = RPMI 5 mM glucose + 10% dialyzed FBS, 0.000781 µM
[13] = RPMI 5 mM glucose + 10% dialyzed FBS, 0.00234 µM
[14] = RPMI 5 mM glucose + 10% dialyzed FBS, 0.00702 µM
[15] = RPMI 5 mM glucose + 10% dialyzed FBS, 0.0211 µM
[16] = RPMI 5 mM glucose + 10% dialyzed FBS, 0.0632 µM
[17] = RPMI 5 mM glucose + 10% dialyzed FBS, 0.19 µM
[18] = RPMI 5 mM glucose + 10% dialyzed FBS, 0.569 µM
[19] = RPMI 5 mM glucose + 10% dialyzed FBS, 1.71 µM
[20] = RPMI 5 mM glucose + 10% dialyzed FBS, 5.12 µM
[21] = RPMI 5 mM glucose + 10% dialyzed FBS, 15.4 µM
[22] = RPMI 5 mM glucose + 10% dialyzed FBS, 46.1 µM
[23] = RPMI 5 mM glucose + 10% FBS, 0.000781 µM
[24] = RPMI 5 mM glucose + 10% FBS, 0.00234 µM
[25] = RPMI 5 mM glucose + 10% FBS, 0.00702 µM
[26] = RPMI 5 mM glucose + 10% FBS, 0.0211 µM
[27] = RPMI 5 mM glucose + 10% FBS, 0.0632 µM
[28] = RPMI 5 mM glucose + 10% FBS, 0.19 µM
[29] = RPMI 5 mM glucose + 10% FBS, 0.569 µM
[30] = RPMI 5 mM glucose + 10% FBS, 1.71 µM
[31] = RPMI 5 mM glucose + 10% FBS, 5.12 µM
[32] = RPMI 5 mM glucose + 10% FBS, 15.4 µM
[33] = RPMI 5 mM glucose + 10% FBS, 46.1 µM

## CCCCCNC(=N)N/N=C/c1c[nH]c2ccc(OC)cc12
[1]
  cell viability: 112%
[2]
  cell viability: 119%
[3]
  cell viability: 114%
[4]
  cell viability: 128%
[5]
  cell viability: 108%
[6]
  cell viability: 130%
[7]
  cell viability: 115%
[8]
  cell viability: 124%
[9]
  cell viability: 106%
[10]
  cell viability: 48%
[11]
  cell viability: 31.2%
[12]
  cell viability: 111%
[13]
  cell viability: 118%
[14]
  cell viability: 115%
[15]
  cell viability: 110%
[16]
  cell viability: 117%
[17]
  cell viability: 117%
[18]
  cell viability: 130%
[19]
  cell viability: 122%
[20]
  cell viability: 99.1%
[21]
  cell viability: 56.7%
[22]
  cell viability: 36.6%

## Cc1c(N)nc([C@H](CC(N)=O)NC[C@@H](N)C(N)=O)nc1C(=O)N[C@H](C(=O)N[C@@H](C)[C@H](O)[C@@H](C)C(=O)N[C@@H](C(=O)NCCc1nc(-c2nc(C(=O)NCCC[S+](C)C)cs2)cs1)[C@@H](C)O)C(O[C@H]1O[C@H](CO)[C@H](O)[C@@H](O)[C@H]1O[C@H]1O[C@H](CO)[C@@H](O)[C@H](OC(N)=O)[C@@H]1O)c1c[nH]cn1 (stereo partly specified)
[1]
  cell viability: 110%
[2]
  cell viability: 115%
[3]
  cell viability: 115%
[4]
  cell viability: 113%
[5]
  cell viability: 101%
[6]
  cell viability: 128%
[7]
  cell viability: 121%
[8]
  cell viability: 82.9%
[9]
  cell viability: 61.9%
[10]
  cell viability: 67.2%
[11]
  cell viability: 74.2%
[23]
  cell viability: 99.2%
[24]
  cell viability: 109%
[25]
  cell viability: 107%
[26]
  cell viability: 114%
[27]
  cell viability: 89.7%
[28]
  cell viability: 121%
[29]
  cell viability: 113%
[30]
  cell viability: 61.8%
[31]
  cell viability: 64.9%
[32]
  cell viability: 29.7%
[33]
  cell viability: 17.7%
[12]
  cell viability: 89.6%
[13]
  cell viability: 110%
[14]
  cell viability: 99.3%
[15]
  cell viability: 111%
[16]
  cell viability: 88.4%
[17]
  cell viability: 113%
[18]
  cell viability: 91.5%
[19]
  cell viability: 81.8%
[20]
  cell viability: 54.3%
[21]
  cell viability: 16.9%
[22]
  cell viability: 14.8%

## CN1C(=O)/C(=C(NC2=CC=C(I)C=C2F)\C3=C1\N=C/N(C[C@@H](O)CO)C3=O)F
[1]
  cell viability: 77.3%
[2]
  cell viability: 76.4%
[3]
  cell viability: 92.5%
[4]
  cell viability: 90.9%
[5]
  cell viability: 89.6%
[6]
  cell viability: 79.6%
[7]
  cell viability: 70.6%
[8]
  cell viability: 59.6%
[9]
  cell viability: 65.6%
[10]
  cell viability: 18.6%
[11]
  cell viability: 51.3%
[23]
  cell viability: 79.2%
[24]
  cell viability: 98.6%
[25]
  cell viability: 107%
[26]
  cell viability: 91.8%
[27]
  cell viability: 74.6%
[28]
  cell viability: 73.2%
[29]
  cell viability: 53.9%
[30]
  cell viability: 60.2%
[31]
  cell viability: 68.5%
[32]
  cell viability: 12.8%
[33]
  cell viability: 30.6%
[12]
  cell viability: 77.5%
[13]
  cell viability: 71.3%
[14]
  cell viability: 90.8%
[15]
  cell viability: 93.2%
[16]
  cell viability: 69.6%
[17]
  cell viability: 64.2%
[18]
  cell viability: 54.8%
[19]
  cell viability: 54.8%
[20]
  cell viability: 53%
[21]
  cell viability: 14.2%
[22]
  cell viability: 28%

## Cc1ccc2nc(NCCN)c3ncc(C)n3c2c1
[1]
  cell viability: 104%
[2]
  cell viability: 112%
[3]
  cell viability: 111%
[4]
  cell viability: 106%
[5]
  cell viability: 122%
[6]
  cell viability: 113%
[7]
  cell viability: 106%
[8]
  cell viability: 101%
[9]
  cell viability: 102%
[10]
  cell viability: 23.2%
[11]
  cell viability: 5.23%
[23]
  cell viability: 111%
[24]
  cell viability: 108%
[25]
  cell viability: 129%
[26]
  cell viability: 110%
[27]
  cell viability: 122%
[28]
  cell viability: 119%
[29]
  cell viability: 123%
[30]
  cell viability: 102%
[31]
  cell viability: 108%
[32]
  cell viability: 86.4%
[33]
  cell viability: 5.06%
[12]
  cell viability: 94.9%
[13]
  cell viability: 110%
[14]
  cell viability: 94.9%
[15]
  cell viability: 94.5%
[16]
  cell viability: 101%
[17]
  cell viability: 106%
[18]
  cell viability: 111%
[19]
  cell viability: 77.7%
[20]
  cell viability: 91%
[21]
  cell viability: 67.4%
[22]
  cell viability: 4.44%

## Nc1n[nH]c2nnc(-c3c(-c4ccccc4)nn4ccccc34)cc12
[1]
  cell viability: 93.5%
[2]
  cell viability: 109%
[3]
  cell viability: 109%
[4]
  cell viability: 115%
[5]
  cell viability: 116%
[6]
  cell viability: 127%
[7]
  cell viability: 124%
[8]
  cell viability: 109%
[9]
  cell viability: 113%
[10]
  cell viability: 92.2%
[11]
  cell viability: 9.4%
[23]
  cell viability: 113%
[24]
  cell viability: 114%
[25]
  cell viability: 107%
[26]
  cell viability: 121%
[27]
  cell viability: 122%
[28]
  cell viability: 131%
[29]
  cell viability: 121%
[30]
  cell viability: 117%
[31]
  cell viability: 117%
[32]
  cell viability: 100%
[33]
  cell viability: 17.3%
[12]
  cell viability: 116%
[13]
  cell viability: 102%
[14]
  cell viability: 119%
[15]
  cell viability: 126%
[16]
  cell viability: 114%
[17]
  cell viability: 125%
[18]
  cell viability: 134%
[19]
  cell viability: 123%
[20]
  cell viability: 137%
[21]
  cell viability: 116%
[22]
  cell viability: 21%

## CN(C)CCCC1(c2ccc(F)cc2)OCc2cc(C#N)ccc21 (stereo unspecified)
[1]
  cell viability: 94.8%
[2]
  cell viability: 101%
[3]
  cell viability: 103%
[4]
  cell viability: 106%
[5]
  cell viability: 100%
[6]
  cell viability: 94.5%
[7]
  cell viability: 91.7%
[8]
  cell viability: 96.7%
[9]
  cell viability: 83.6%
[10]
  cell viability: 86.9%
[11]
  cell viability: 73.6%
[23]
  cell viability: 91.5%
[24]
  cell viability: 99.4%
[25]
  cell viability: 89.4%
[26]
  cell viability: 99.1%
[27]
  cell viability: 86.5%
[28]
  cell viability: 96.6%
[29]
  cell viability: 82.4%
[30]
  cell viability: 93.1%
[31]
  cell viability: 74.2%
[32]
  cell viability: 90.2%
[33]
  cell viability: 78.1%
[12]
  cell viability: 109%
[13]
  cell viability: 109%
[14]
  cell viability: 106%
[15]
  cell viability: 108%
[16]
  cell viability: 113%
[17]
  cell viability: 120%
[18]
  cell viability: 84.1%
[19]
  cell viability: 105%
[20]
  cell viability: 70.7%
[21]
  cell viability: 92.2%
[22]
  cell viability: 76%

## CC(=O)OC[C@@H]1O[C@H]([C@H](OC(C)=O)[C@@H]1OC(C)=O)N2\C=C/C(=O)NC2=O
[12]
  cell viability: 118%
[13]
  cell viability: 109%
[14]
  cell viability: 137%
[15]
  cell viability: 119%
[16]
  cell viability: 114%
[17]
  cell viability: 143%
[18]
  cell viability: 113%
[19]
  cell viability: 112%
[20]
  cell viability: 122%
[21]
  cell viability: 108%
[22]
  cell viability: 93.9%

## O=C(O)c1ccc(O)c2ncc(N3CCOCC3)cc12
[1]
  cell viability: 101%
[2]
  cell viability: 117%
[3]
  cell viability: 128%
[4]
  cell viability: 110%
[5]
  cell viability: 103%
[6]
  cell viability: 102%
[7]
  cell viability: 116%
[8]
  cell viability: 99.8%
[9]
  cell viability: 73.5%
[10]
  cell viability: 99.2%
[11]
  cell viability: 11.4%
[23]
  cell viability: 106%
[24]
  cell viability: 109%
[25]
  cell viability: 109%
[26]
  cell viability: 115%
[27]
  cell viability: 112%
[28]
  cell viability: 94.1%
[29]
  cell viability: 106%
[30]
  cell viability: 99.3%
[31]
  cell viability: 65.9%
[32]
  cell viability: 84%
[33]
  cell viability: 7.59%
[12]
  cell viability: 94.8%
[13]
  cell viability: 98.4%
[14]
  cell viability: 96%
[15]
  cell viability: 99.6%
[16]
  cell viability: 95%
[17]
  cell viability: 86.2%
[18]
  cell viability: 99%
[19]
  cell viability: 87.4%
[20]
  cell viability: 46.4%
[21]
  cell viability: 68.9%
[22]
  cell viability: 7.27%
